Test results published in patent publication US9145403B2, “Heterocyclic alkanol derivatives” (Bayer Intellectual Property GmbH, priority 2010, dated 2015).

What was measured:
Leptosphaeria nodorum = Leptosphaeria nodorum test (wheat)/protective; format: in vivo; conditions: young wheat plants sprayed at 500 ppm, inoculated 1 day after treatment, evaluation 7-9 days after inoculation; 0% = control, 100% = no infection
Protocol: Leptosphaeria nodorum Test (Wheat)/Protective Solvent: 49 parts by weight of N,N-dimethyformamide Emulsifler: 1 part by weight of alkylaryl polyglycol ether To produce an appropriate active ingredient formulation, 1 part by weight of active ingredient is mixed with the specified amounts of solvent and emulsifler, and the concentrate is diluted with water to the desired concentration. To test for protective activity, young plants are sprayed with the formulation of active ingredient at the stated application rate. One day after the treatment, the plants are inoculated with an aqueous spore suspension of Leptosphaeria nodorum and then remain at 100% relative air humidity and 22° C. for 48 h. The plants are then placed in a greenhouse at 90% relative air humidity and a temperature of 22° C. Evaluation follows 7-9 days after the inoculation. 0% means an efficacy which corresponds to that of the control, whereas an efficacy of 100% means that no infection is observed. In this test, the following inventive compounds, at an active ingredient concentration of 500 ppm, show an efficacy of 70% or more.

Alternaria solani = assay: Alternaria test (tomato)/protective; format: in vivo; conditions: young tomato plants sprayed at 500 ppm, inoculated 1 day after treatment, evaluation 7 days after inoculation; 0% = control, 100% = no infection
Protocol: Alternaria Test (Tomato)/Protective Solvent: 49 parts by weight of N,N-dimethyformamide Emulsifier: 1 part by weight of alkylaryl polyglycol ether To produce an appropriate active ingredient formulation, 1 part by weight of active ingredient is mixed with the specified amounts of solvent and emulsifier, and the concentrate is diluted with water to the desired concentration. To test for protective activity, young tomato plants are sprayed with the formulation of active ingredient at the stated application rate. One day after the treatment, the plants are inoculated with a spore suspension of Alternaria solani and are then left at 100% relative humidity and 22° C. for 24 hours. The plants are then left at 96% relative air humidity and a temperature of 20° C. Evaluation follows 7 days after the inoculation. 0% means an efficacy which corresponds to that of the control, whereas an efficacy of 100% means that no infection is observed. In this test, the following inventive compounds, at an active ingredient concentration of 500 ppm, show an efficacy of 70% or more.

Puccinia recondita = assay: Puccinia test (wheat)/protective; format: in vivo; conditions: young wheat plants sprayed at 500 ppm, inoculated 1 day after treatment, evaluation 7-9 days after inoculation; 0% = control, 100% = no infection
Protocol: Puccinia Test (Wheat)/Protective Solvent: 49 parts by weight of N,N-dimethyformamide Emulsifier: 1 part by weight of alkylaryl polyglycol ether To produce an appropriate active ingredient formulation, 1 part by weight of active ingredient is mixed with the specified amounts of solvent and emulsifier, and the concentrate is diluted with water to the desired concentration. To test for protective activity, young plants are sprayed with the formulation of active ingredient at the stated application rate. One day after the treatment, the plants are inoculated with a spore suspension of Puccinia recondita and then left at 100% relative humidity and 22° C. for 48 h. The plants are then left at 80% relative air humidity and a temperature of 20° C. Evaluation follows 7-9 days after the inoculation. 0% means an efficacy which corresponds to that of the control, whereas an efficacy of 100% means that no infection is observed. In this test, the following inventive compounds, at an active ingredient concentration of 500 ppm, show an efficacy of 70% or more.

Sphaerotheca fuliginea = assay: Sphaerotheca test (cucumber)/protective; format: in vivo; conditions: young cucumber plants sprayed at 500 ppm, inoculated 1 day after treatment, evaluation 7 days after inoculation; 0% = control, 100% = no infection
Protocol: Table D: Sphaerotheca Test (Cucumber)/Protective Solvent: 49 parts by weight of N,N-dimethylformamide Emulsifier: 1 part by weight of alkylaryl polyglycol ether To produce an appropriate active ingredient formulation, 1 part by weight of active ingredient is mixed with the specified amounts of solvent and emulsifier, and the concentrate is diluted with water to the desired concentration. To test for protective activity, young cucumber plants are sprayed with the formulation of active ingredient at the stated application rate. 1 day after the treatment, the plants are inoculated with a spore suspension of Sphaerotheca fuliginea. The plants are then placed in a greenhouse at 70% relative air humidity and a temperature of 23° C. Evaluation follows 7 days after the inoculation. 0% means an efficacy which corresponds to that of the control, whereas an efficacy of 100% means that no infection is observed. In this test, the following inventive compounds, at an active ingredient concentration of 500 ppm, show an efficacy of 70% or more.

[1] = log P by HPLC (EEC Directive 79/831 Annex V.A8), reversed-phase C18; format: physicochemical; conditions: reversed-phase C18 HPLC column; method [a]: LC-MS, acidic range, pH 2.7, 0.1% aqueous formic acid/acetonitrile, linear gradient 10% to 95% acetonitrile
Protocol: The log P values were measured in accordance with EEC Directive 79/831 Annex V.A8 by HPLC (High Performance Liquid Chromatography) using reversed-phase columns (C 18) by the following methods: [a] The LC-MS determination in the acidic range is effected at pH 2.7 with 0.1% aqueous formic acid and acetonitrile (contains 0.1% formic acid) as eluents; linear gradient from 10% acetonitrile to 95% acetonitrile.

chromatographic logP [1]	SMILES	Efficacy (%) (Leptosphaeria nodorum)	Efficacy (%) (Alternaria solani)	Efficacy (%) (Puccinia recondita)	Efficacy (%) (Sphaerotheca fuliginea)
–	CC(C)(C)c1ncc(OCC(O)(c2cncs2)C(C)(C)C)cn1 (centres unmarked) [Compound 2]	95%	–	–	–
–	CC(C)(C)C(O)(COc1ccc(Cl)nc1)c1cncs1 (centres unmarked) [Compound 3]	–	89%	80%	80%
0.89	CC(C)(C)C(O)(COc1cccnc1)c1cncs1 (centres unmarked) [Compound 4]	–	–	80%	–
1.4	CC(C)(C)C(O)(COc1cncnc1)c1cncs1 (centres unmarked) [Compound 6]	70%	–	–	–
